Results as given in patent US6951943B2, “Process for the preparation of phenylalanine enamide derivatives” (Celltech R & D Limited, priority 2002, dated 2005).

Row | melting point | SMILES
1 | 194 °C | CCOC(=O)[C@H](Cc1ccc(NC(=O)c2c(Cl)cncc2Cl)cc1)NC1=CC(=O)C12CCCCC2 [Example 1, Ethyl 2(S)-[(3-oxospiro[3.5]non-1-en-1-yl)amino]-3-{4-[(3,5-dichloroisonicotinoyl)amino]phenyl}propanoate]
2 | 112 °C | CCOC(=O)[C@H](Cc1ccc(Nc2nccc3ccncc23)cc1)NC1=CC(=O)C12CCOCC2 [Example 9, Ethyl 3-[4-([2,7]naphthyridin-1-ylamino)phenyl]-2(S)-[(3-oxo-7-oxa-spiro[3.5]non-1-en-1-yl)amino]propanoate]
3 | 221 °C | CCOC(=O)[C@H](Cc1ccc(Nc2nccc3ccncc23)cc1)NC1=C(SC(C)C)C(=O)C12CCOCC2 [Example 10, Ethyl 2(S)-[(2-isopropylsulfanyl-3-oxo-7-oxa-spiro[3.5]non-1-en-1-yl)amino]-3-[4-([2,7]naphthyridin-1-ylamino)phenyl]propanoate]
